Legend:
[1] = tested on: antibodies in sera from SARS patients (sera 1a, 1b, 2, 6, 37, 62, London, SARS-yellow, SARS-green); type: binding, human; parameters: Binding of serum 6 to linear peptides of protein X1 of SARS-CoV Urbani / Binding of serum 37 to linear peptides of protein X1 of SARS-CoV Urbani / Binding of serum 6 to looped/cyclic peptide (PEPSCAN-ELISA) / Binding of serum 37 to looped/cyclic peptide (PEPSCAN-ELISA) / Binding of serum 37 to looped/cyclic peptides of protein X1 of SARS-CoV Urbani / Binding of serum 6 to linear peptides of protein X2 / Binding of serum 37 to linear peptides of protein X2 / Binding of serum 37 to looped/cyclic peptides of protein X2 of SARS-CoV Urbani / Binding of serum 6 to linear peptides of protein M of SARS-CoV Urbani / Binding of serum 37 to linear peptides of protein M of SARS-CoV Urbani / Binding of serum 6 to looped/cyclic peptides of protein M of SARS-CoV Urbani / Binding of serum 37 to looped/cyclic peptides of protein M of SARS-CoV Urbani / Binding of serum 6 to linear peptides of protein X3 of SARS-CoV Urbani / Binding of serum 37 to linear peptides of protein X3 of SARS-CoV Urbani / Binding of serum 37 to looped/cyclic peptides of protein X3 of SARS-CoV Urbani / Binding of serum 6 to linear peptides of protein X4 of SARS-CoV Urbani / Binding of serum 37 to linear peptides of protein X4 of SARS-CoV Urbani / Binding of serum 37 to looped/cyclic peptides of protein X4 of SARS-CoV Urbani / Binding of serum 6 to linear peptides of protein X5 of SARS-CoV Urbani / Binding of serum 37 to linear peptides of protein X5 of SARS-CoV Urbani / Binding of serum 37 to looped/cyclic peptides of protein X5 of SARS-CoV Urbani / Binding of serum 6 to linear peptides of protein N of SARS-CoV Urbani / Binding of serum 37 to linear peptides of protein N of SARS-CoV Urbani / Binding of serum 6 to linear peptide (PEPSCAN-ELISA) / Binding of serum 1a to looped/cyclic peptides of protein N of SARS-CoV Urbani / Binding of serum 1b to looped/cyclic peptides of protein N of SARS-CoV Urbani / Binding of serum 2 to looped/cyclic peptides of protein N of SARS-CoV Urbani / Binding of serum 6 to looped/cyclic peptides of protein N of SARS-CoV Urbani / Binding of serum 37 to looped/cyclic peptides of protein N of SARS-CoV Urbani / Binding of serum 62 to looped/cyclic peptides of protein N of SARS-CoV Urbani / Binding of serum London to looped/cyclic peptides of protein N of SARS-CoV Urbani / Binding of serum SARS-green to looped/cyclic peptides of protein N of SARS-CoV Urbani: unit not given here
[2] = tested on: control sera (pooled serum of ten healthy LUMC hospital workers; commercial negative donor pooled serum from the Dutch bloodbank); type: binding, human; parameters: Binding of Control serum LUMC to linear peptides / Binding of Control serum Blood-bank to linear peptides / Binding of Control serum LUMC to looped peptides / Binding of Control Serum Blood-Bank to Looped peptides / Binding of Control serum LUMC to linear peptides of the protein M of SARS-CoV Urbani / Binding of Control serum Blood-bank to linear peptides of the protein M of SARS-CoV Urbani / Binding of Control serum LUMC to looped peptides of the protein M of SARS-CoV Urbani / Binding of Control Serum Blood-Bank to Looped peptides of the protein M of SARS-CoV Urbani: unit not given here
[3] = tested on: rabbit serum obtained by immunizing a rabbit with the SARS-CoV strain Frankfurt 1; type: binding; parameters: Binding of a rabbit serum to linear peptides / Binding of a rabbit serum to looped peptides / Rabbit serum linear peptides / Rabbit serum looped peptides / Binding of a rabbit serum to linear peptides of protein N of SARS-CoV Urbani (Rabbit serum linear peptides) / Binding of a rabbit serum to looped/cyclic peptides of protein N of SARS-CoV Urbani (Rabbit serum looped peptides): unit not given here
[4] = tested on: recombinant human anti-SARS-CoV antibody 03-018; type: binding; parameters: Binding of antibody 03-018 to linear peptides of the N protein of SARS-CoV Urbani / Binding of antibody 03-018 to looped/cyclic peptides of the N protein of SARS-CoV Urbani: unit not given here

| Sequence | Binding of serum 1a to linear peptides of protein N of SARS-CoV Urbani [1] | Binding of serum 1a to looped/cyclic peptides of protein N of SARS-CoV Urbani [1] | Binding of serum 1b to linear peptides of protein N of SARS-CoV Urbani [1] | Binding of serum 1b to looped/cyclic peptides of protein N of SARS-CoV Urbani [1] | Binding of serum 2 to linear peptides of protein N of SARS-CoV Urbani [1] | Binding of serum 2 to looped/cyclic peptides of protein N of SARS-CoV Urbani [1] | Binding of serum 6 to linear peptides of protein N of SARS-CoV Urbani [1] | Binding of serum 6 to looped/cyclic peptides of protein N of SARS-CoV Urbani [1] | Binding of serum 37 to linear peptides of protein N of SARS-CoV Urbani [1] | Binding of serum 37 to looped/cyclic peptides of protein N of SARS-CoV Urbani [1] | Binding of serum 62 to linear peptides of protein N of SARS-CoV Urbani [1] | Binding of serum 62 to looped/cyclic peptides of protein N of SARS-CoV Urbani [1] | Binding of serum London to linear peptides of protein N of SARS-CoV Urbani [1] | Binding of serum London to looped/cyclic peptides of protein N of SARS-CoV Urbani [1] | Binding of serum SARS-green to looped/cyclic peptides of protein N of SARS-CoV Urbani [1] | Binding of serum SARS-yellow to looped/cyclic peptides of protein N of SARS-CoV Urbani [1] | Binding of a rabbit serum to linear peptides of protein N of SARS-CoV Urbani (Rabbit serum linear peptides) [3] | Binding of a rabbit serum to looped/cyclic peptides of protein N of SARS-CoV Urbani (Rabbit serum looped peptides) [3] | Binding of antibody 03-018 to linear peptides of the N protein of SARS-CoV Urbani [4] | Binding of antibody 03-018 to looped/cyclic peptides of the N protein of SARS-CoV Urbani [4] | also measured |
| --- | --- | --- | --- | --- | --- | --- | --- | --- | --- | --- | --- | --- | --- | --- | --- | --- | --- | --- | --- | --- | --- |
| DFSRQLQNSMSGASA | 0.2 | 0.3 | 0.1 | 0.1 | 0.2 | 0.4 | 0.2 | 0.2 | 0.7 | 0.4 | 0.6 | 0.2 | 0.5 | 0.3 | 0.4 | 0.2 | 0.5 | 0.6 | 0.1 | 0.2 | Binding of serum SARS-green to linear peptides of protein N of SARS-CoV Urbani [1]: 0.3; Binding of serum SARS-yellow to linear peptides of protein N of SARS-CoV Urbani [1]: 0.5; Control Serum Blood-Bank Looped peptides [2]: 0.5; Control serum Blood-bank linear peptides [2]: 0.6; Control serum LUMC linear peptides [2]: 0.6; Control serum LUMC looped peptides [2]: 0.4 |
| LNKHIDAYKTFPPTE | 0.2 | 0.2 | 0.1 | 0.1 | 0.1 | 0.2 | 0.1 | 0.1 | 0.7 | 0.4 | 0.5 | 0.3 | 0.4 | 0.3 | 0.2 | 0.1 | 0.1 | 0.4 | 0.1 | 0.2 | Binding of serum SARS-green to linear peptides of protein N of SARS-CoV Urbani [1]: 0.4; Binding of serum SARS-yellow to linear peptides of protein N of SARS-CoV Urbani [1]: 0.5; Control Serum Blood-Bank Looped peptides [2]: 0.4; Control serum Blood-bank linear peptides [2]: 0.5; Control serum LUMC linear peptides [2]: 0.5; Control serum LUMC looped peptides [2]: 0.4 |
| EASKKPRQKRTATKQ | – | 0.3 | – | 0.2 | – | 0.4 | – | 0.3 | – | 0.6 | – | 0.5 | – | 0.5 | 0.3 | 0.4 | 0.2 | 0.2 | 0.1 | 0.3 | Binding of serum 1a to linear peptide (PEPSCAN-ELISA) [1]: 0.2; Binding of serum 1b to linear peptide (PEPSCAN-ELISA) [1]: 0.1; Binding of serum 2 to linear peptide (PEPSCAN-ELISA) [1]: 0.3; Binding of serum 6 to linear peptide (PEPSCAN-ELISA) [1]: 0.3; Binding of serum 37 to linear peptide (PEPSCAN-ELISA) [1]: 0.7; Binding of serum 62 to linear peptide (PEPSCAN-ELISA) [1]: 0.7; Binding of serum London to linear peptide (PEPSCAN-ELISA) [1]: 0.5; Binding of serum SARS-green to linear peptide (PEPSCAN-ELISA) [1]: 0.3; Binding of serum SARS-yellow to linear peptide (PEPSCAN-ELISA) [1]: 0.6; Binding of Control Serum Blood-Bank to Looped peptides [2]: 0.8; Binding of Control serum Blood-bank to linear peptides [2]: 0.9; Binding of Control serum LUMC to linear peptides [2]: 0.8; Binding of Control serum LUMC to looped peptides [2]: 0.6 |
| TDSTDNNQNGGRNGA | 0.3 | 0.4 | 0.2 | 0.3 | 0.2 | 0.6 | 0.3 | 0.3 | 1.0 | 0.7 | 0.8 | 0.3 | 0.6 | 0.6 | 0.8 | 0.7 | 0.1 | 0.2 | 0.2 | 0.2 | Binding of serum SARS-green to linear peptides of protein N of SARS-CoV Urbani [1]: 1.0; Binding of serum SARS-yellow to linear peptides of protein N of SARS-CoV Urbani [1]: 0.7; Binding of Control Serum Blood-Bank to Looped peptides [2]: 0.7; Binding of Control serum Blood-bank to linear peptides [2]: 1.1; Binding of Control serum LUMC to linear peptides [2]: 0.8; Binding of Control serum LUMC to looped peptides [2]: 0.8 |
